Results reported in US9320271B2, “Microbial composition” (Rohm and Haas Company, priority 2011, dated 2016).
Where “and” joins values, the source holds several entries; their conditions need not be identical. Equal values may be shown once.

What was measured:
[1] = test system: Staphylococcus aureus (10788 strain); experiment: 15 second contact kill test / antimicrobial efficacy of actives against S. aureus in water; assay type: cell-based
Method: Selected materials were also tested against a representative Grant positive Staphylococcus aureus. An overnight culture of Staphylococcus aureus (10788 strain) was inoculated onto a […] Soy Agar (TSA) plate and grown for ca. 18 hrs at 37° C. The culture S. aureus was washed from the plate using sterile saline (0.85% NaCl) solution and a sterile spreader and suspended in 50 ml saline. This suspension was separated into equal volumes and centrifuged at 4000 rpm for 15 minutes. […] Here, OD620 indicates the absorbance of a sample in a cuvette of 1.0 cm path length at a wavelength of 620 nm. This bacterial stock was used for assaying against antimicrobial actives (in triplicate). The following assay describes the testing of 8 materials using 6 dilutions across half of a 96-well micro titre plate (MTP). Using this approach it is possible to assay 16 actives (without replicates) with one full dilution plate, replicating this set up in two halves of the plate columns, 1-6 and 7-12. 1M solutions of the test actives were prepared in dimethylsulphoxide (DMSO). […] Aliquots (270 μl) of the materials at 1.11 times the final concentration were dispensed into the wells of the MTP along one column (A1-H1). This MTP was labelled as the “Screening plate”. In another MTP, labelled as the “Dilution plate”, […] of D/E neutralising solution from DIFCO Composition was added to column 1. The composition of the neutralising solution was as follows: pancreatic digest of casein, 5.0 g/L; […] Dextrose, 10 g/L, sodium thioglycollate, 1.0 g/L, sodium thiosulphate, 6.0 g/L; sodium bisulphite, 2.5 g/L; […] […] From the colony number in this segment, NMBS is calculated by the formula: NMBS=log {Ncol·10^DF·100/3} Here, Ncol is the colony count, and DF is the dilution factor taken from the MTP-well corresponding to the TSA plate segment (i.e. DF may range from 1 for the quench, to 6 for the highest dilution). […] Here, OD620 indicates the absorbance of a sample in a cuvette of 1.0 cm path length at a wavelength, of 620 nm. […]

[2] = test system: Escherichia coli (E. coli—ATCC #10536); experiment: Synergy test: high resolution MBC microtiter plate assay, phosphate buffer containing 35% dipropylene glycol, 15 seconds contact; assay type: cell-based; conditions: E. coli 10536
Excerpt: The concentrations and ratios may also vary under different test conditions or with different test methods.
One measure of synergy is the industrially accepted method described by Kull, F. C.; Eisman, P. C.; Sylwestrowicz, H. D, and Mayer, R. L., in Applied Microbiology 9:538-541 (1961), using the ratio determined by the formula: […]=Synergy Index (“SI”) wherein; QA=concentration of compound A (first component) in percent, acting alone, which produced an end point (MBC of Compound A). Qa=concentration of compound A in percent, in the mixture, which produced an end point. QB=concentration of compound B (second component) in percent, acting alone, which, produced an end point (MBC of Compound B). Qb=concentration of compound B in percent, in the mixture, which produced an end point.
When the sum of Qa/QA and Qb/QB is greater than one, antagonism is indicated. […] The lower the SI, the greater is the synergy shown by that particular mixture. The minimum biocidal concentration (MBC) of a microbicide is the lowest concentration tested under a specific set of conditions that provides complete kill of the tested microorganisms.
Synergy tests were conducted using standard microliter plate assays with phosphate buffer containing 35% dipropylene glycol (DPG). In this method, a wide range of combinations of chemicals was tested by conducting high resolution MBC assays of Component (A) in the presence of various concentrations of Component (B). High resolution MBCs were determined by adding varying amounts of microbicide to one column of a microliter plate and doing subsequent […] dilutions using an automated liquid handling, system to obtain a series of closely spaced endpoints. The MBC plate was inoculated one column at a time with the test microorganism. An aliquot of the inoculated well was transferred at 15 seconds to a plate containing a neutralizing agent (D/E Neutralizing Broth), mixed and held for 5 minutes before being transferred to a growth plate containing trypticase soy broth (TSB). The TSB plate was incubated at 37° C. and read for the presence/absence of growth at 24 hours. The lowest level tested that provided complete kill (as evidenced by no growth in the microtitre plate) of the test organisms in 15 seconds is the minimum biocidal concentration (MBC).
The synergy of the combinations of the present invention was determined against a bacterium, Escherichia coli (E. coli—ATCC #10536), at a concentration of approximately 1×10^8 it bacteria per mL. This microorganism is representative of natural contaminants in many consumer and industrial applications.

SMILES: C=C(C)C1CC=C(CO)CC1 (stereo not shown) [(4-(prop-1-en-2-yl)cyclohex-1-enyl)methanol]
- S. aureus 6538 Log Reduction ([1]; 0.2% perillyl alcohol alone): 0.22
- S. aureus 6538 Log Reduction ([1]; 0.25 Perillyl alcohol alone): 0.5
- SI (Synergy Index) ([2]; at Qa and Qb, less than one = synergy): 1.00
- MBC of the component acting alone (QA / QB; Qa or Qb where the other component is 0) ([2]; complete kill in 15 seconds, component alone): 0.5 weight % and 0.3 weight %
